The target of data set [1] is T1, HEK293-hLAT1 cells (Homo sapiens, UniProt Q01650).
T1 construct: expressed in transfected cells; host or cells: HEK293
Kind of data set: Cellular uptake test (using HEK293). The format is cell-based. As for the experimental part: • Cells to be used: HEK293-Mock, HEK293-hLAT1, HEK293-hLAT2 (HEK293: Human Embryonic Kidney cells 293) • Culture medium to be used: E-MEM (containing 10% FBS, 1% P/S, 1% NEAA)
Two days before a test day, a cell suspension was prepared in such a manner that the concentration of predetermined cells was 1 x 10^5 cells/mL. The cell suspension was seeded in a 24-well multiculture plate at a volume of 0.5 mL per well. On the day of the test, cultures were confirmed to be subconfluent (which refers to a state where 70-80% of the well is covered in density). […]
^211At-AAMT-OMe or ^211At-AAMT was added to the prepared cells at 10 µL/well. […] The cells were lysed by adding 0.1N NaOH to obtain a lysate, and the radioactivity of the lysate was measured using a γ counter. After the radioactivity measurement, the lysate was loaded into a 96-well plate at a volume of 10 µL per well, the protein amount was measured by the BCA method, and the number of cells was corrected based on the protein amount. Absorbance was measured by MultiScanFC (Thermo Fisher). The uptake level of ^211At-AAMT-OMe or ^211At-AAMT into the cells (number of radioactivity counts/protein amount) was calculated.

Data set [2] concerns human pancreatic cancer cell line, PANC1. Kind of data set: Imaging of mice subcutaneously transplanted with PANC1 (Test Example 2). As to conditions: 2 hours after administration, 0.5 MBq per mouse via tail vein.
Description: Immunodeficient mice (Balb/c-nu/nu, 5-week-old, male) were habituated for 1 week and then subcutaneously transplanted with a human pancreatic cancer cell line (PANC1, 1 × 10^7 cells/mouse). After the transplantation, the mice were observed over time until tumor reached a size large enough for imaging (about 1000 mm^3). […] Two hours after administration, the mice were anesthetized by isoflurane inhalation, and planar images were taken using a γ camera (E-cam, Siemens).
For data set [3], the system named is PANC1. Kind of data set: Cellular uptake test (using PANC1). The format is cell-based, human. As to conditions: compared to 211At-AAMT. As for the experimental part:
• Cells to be used: PANC1 • Culture medium to be used: D-MEM (containing 10% FBS, 1% P/S)
Two days before a test day, a cell suspension was prepared in such a manner that the concentration of predetermined cells was 1 x 10^5 cells/mL in the same manner as in Test Example 1. The cell suspension was seeded in a 24-well multiculture plate at a volume of 0.5 mL per well. On the day of the test, cultures were confirmed to be subconfluent (which refers to a state where 70-80% of the well is covered in density). The cells were washed twice with warmed PBS(-) Buffer (166-23555, FUJIFILM Wako Pure Chemical Corporation), the culture medium was replaced with HBSS(-) Buffer (085-09355, FUJIFILM Wako Pure Chemical Corporation), and the plate was left to stand in an incubator (MINIcell-35, WakenBtech Co., Ltd) until an RI addition test.
^211At-AAMT-OMe, ^211At-AAMT-OEt, ^211At-AAMT-OPr, or ^211At-AAMT was added to the prepared cells at 10 µL/well. BCH (LAT1 inhibitor, 20 mM) or unlabeled AMT (α-methyl tyrosine, […]) was previously (15 minutes before) added (10 µg/mL). The cells were cultured (CO2 5%, 37°C), and after 30 minutes, the liquid was removed by suction using an aspirator. The cells were washed twice with PBS(-). The cells were lysed by adding 0.1N NaOH to obtain a lysate, and the radioactivity of the lysate was measured using a γ counter. After the radioactivity measurement, the lysate was loaded into a 96-well plate at a volume of 10 µL per well, the protein amount was measured by the BCA method, and the number of cells was corrected based on the protein amount. Absorbance was measured by MultiScanFC (Thermo Fisher). The uptake level of ^211At-AAMT-OMe, ^211At-AAMT-OEt, ^211-At-AAMT-OPr, or ^211At-AAMT into the cells (number of radioactivity counts/protein amount) was calculated.

In data set [4] the test system is CDDP-resistant A549 (A549 CDDP-r). As to conditions: 30 days after administration, 0.5 MBq per mouse, compared with 211At-AAMT. As for the experimental part: (§1) Thirty days after administration, the mice were euthanized and tumor masses were isolated. After fat tissue and the like were trimmed off, the wet weights of the isolated tumor masses were measured to make a histogram.

The subject of data set [5] is Gem-resistant PANC1 (PANC1 Gem-r). The settings on record: mouse, in vivo. The protocol: as §1
Data set [6] has as its system human pancreatic cancer cell line, PANC1. Kind of data set: Therapeutic test on mice subcutaneously transplanted with PANC1 (Test Example 3). The format is in vivo. The text has this:
Twenty-eight days after administration, the mice were euthanized and subjected to autopsy, and tumor masses were isolated after organs were examined for abnormalities.

Data set [7] shares this test system. The settings on record: up to 21 days after administration, 1 MBq per mouse. As for the experimental part:
Tumor sizes and body weights were measured over time after the administration. The experiment was terminated 21 days after administration. It should be noted that in Fig. 21 and Fig. 22, "OMe" is ^211At-AAMT-OMe and "OEt" is ^211At-AAMT-OEt.

Data set [8] concerns CDDP-resistant A549 (A549 CDDP-r). Kind of data set: Cytotoxicity test on CDDP-resistant A549 (Test Example 8). As to conditions: cultivation for 48 hours. The protocol:
Two days before experiment, A549 and CDDP-resistant A549 (A549 CDDP-r) were each seeded in a 96-well plate at a concentration of 1 × 10^5 cells/mL. ^211At-AAMT-OMe or ^211At-AAMT adjusted to a predetermined concentration was added to A549 cells and CDDP-resistant A549 cells, respectively, and the cells were cultured (CO2 5%, 37°C). After the cultivation for 48 hours, Cell counting kit-8 (DOJINDO LABORATORIES) was added. After the addition, the cells were cultured at 37°C for 1 hour, and cell viability was measured using absorbance at 450 nm as an indicator.

Each structure is given as a SMILES string.

T1 sequence (Q01650 whole entry): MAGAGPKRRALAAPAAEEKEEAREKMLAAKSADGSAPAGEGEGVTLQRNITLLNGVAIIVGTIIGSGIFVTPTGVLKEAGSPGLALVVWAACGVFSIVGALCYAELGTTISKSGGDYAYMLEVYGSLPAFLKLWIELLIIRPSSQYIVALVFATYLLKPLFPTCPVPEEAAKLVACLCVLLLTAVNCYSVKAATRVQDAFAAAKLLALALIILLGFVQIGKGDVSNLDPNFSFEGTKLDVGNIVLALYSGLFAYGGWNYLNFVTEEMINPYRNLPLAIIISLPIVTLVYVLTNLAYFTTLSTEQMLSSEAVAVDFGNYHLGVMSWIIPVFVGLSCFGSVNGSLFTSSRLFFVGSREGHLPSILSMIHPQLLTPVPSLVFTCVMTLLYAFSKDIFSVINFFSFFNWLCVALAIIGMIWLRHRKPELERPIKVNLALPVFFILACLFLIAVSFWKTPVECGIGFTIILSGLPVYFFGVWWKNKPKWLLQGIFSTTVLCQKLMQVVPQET
T1 sequence (P08195 102-630 partner): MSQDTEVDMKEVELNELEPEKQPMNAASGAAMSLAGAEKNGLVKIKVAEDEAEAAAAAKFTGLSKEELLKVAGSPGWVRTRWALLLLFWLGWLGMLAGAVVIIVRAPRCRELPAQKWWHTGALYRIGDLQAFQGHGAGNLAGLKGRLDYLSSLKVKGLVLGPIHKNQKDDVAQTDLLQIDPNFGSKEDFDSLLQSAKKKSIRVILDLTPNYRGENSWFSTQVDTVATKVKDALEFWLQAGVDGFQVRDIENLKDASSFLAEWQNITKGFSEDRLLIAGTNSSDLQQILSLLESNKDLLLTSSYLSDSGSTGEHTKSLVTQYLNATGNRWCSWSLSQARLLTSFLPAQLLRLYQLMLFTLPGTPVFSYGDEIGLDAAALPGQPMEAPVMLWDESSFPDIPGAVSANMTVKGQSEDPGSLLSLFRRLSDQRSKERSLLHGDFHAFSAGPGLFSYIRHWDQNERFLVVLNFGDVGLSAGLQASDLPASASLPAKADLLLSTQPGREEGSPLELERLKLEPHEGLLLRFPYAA

On to `COc1ccc(C[C@](C)(N)C(=O)O)cc1[211At]` [^211At-AAMT-OMe, (S)-3-astato(^211At)-O-methyl-α-methyltyrosine], for which the “uptake level into the cells (number of radioactivity counts/protein amount)” value in data set [1] (HEK293-hLAT1 cells (CTL), 30 minutes, comparable to 211At-AAMT) was “strongly taken up”. Further, the “uptake into the cells in the presence of inhibitor” value in data set [1] (HEK293-hLAT1 cells, in the presence of BCH and AMT) was “significantly inhibited”. For the same compound, in data set [2], the “accumulation in the tumor (planar image, γ camera)” value is “accumulated in the tumor sites”. Besides, the uptake speed entry in data set [3] (PANC1 cells) is on record as “much superior”. In addition, in data set [3], the “uptake level into the cells (number of radioactivity counts/protein amount)” value was “much superior”. Further, the “anti-tumor effect (tumor weight)” value in data set [4] is “higher”. Also, in data set [5], the “anti-tumor effect (tumor weight)” value is “higher” and the “tumor growth inhibiting effect (tumor size)” value was “higher”. For the same compound, in data set [6] (28 days after administration, 1 MBq per mouse via tail vein, compared with the 211At-AAMT administration group), the “tumor size (wet weight of isolated tumor masses)” value is “slightly smaller”. Besides, in data set [6] (immediately after administration to 28th day, 1 MBq per mouse, not at a level regarded as a side effect), the mouse body weight result was “tends to slightly reduce”. Further, in data set [7], the “apparent toxicity induced by administration” value is given as “not observed” and the body weight result is on record as “gently increased”. For the same compound, the “cytotoxicity (cell viability, Cell counting kit-8)” value in data set [8] was “more remarkable cytotoxicity”.

Source of the values: EP4592274A1, “RADIOLABELED TYROSINE DERIVATIVE AND APPLICATION THEREOF” (OSAKA UNIVERSITY, priority 2022, dated 2024).
